In the first assay the test system is LNCaP cell lines. The assay can be described thus: WST-1 Cell Proliferation and Viability Assay. Type of assay: cell-based. To be noted: Homo sapiens; LNCaP cells, compound incubation 18-72 hours. The procedure:
WST-1 Cell Proliferation and Viability Assay
Cell proliferation and cell viability was assessed using the tetrazolium salt WST-1 (Roche Applied Science, Indianapolis Ind.). The assay is based on the cleavage of WST-1 (light red) by mitochondrial dehydrogenase causing the formation of formazan (dark red), which can be measured on an optical density (O.D.) reader. LNCaP cell lines were plated in 96 well tissue culture plates (Corning Costar, N.Y.) at a density of 5000 cells/well in 150 μl complete media phenol-red free (RPMI-1640 [Invitrogen, Carlsbad Calif.] and 10% fetal calf serum). This plate is termed the assay plate. After the cells are plated, they are then incubated overnight at 37 degrees Celsius in a humidified chamber containing 5% CO2 (incubator).
Compounds are added to the assay plate in 50 μl of complete media and 0.4% DMSO (v:v) making the final DMSO concentration 0.1%. The assay plate is then returned to the incubator for 18-72 hours. WST-1 reagent is then added (20 μl/well) and the plate is placed on an ELISA plate shaker for 30 minutes at room temperature. Plates are then transferred back to the incubator for an additional 3 hours. Plates are then read on a 96 well plate O.D. reader at A490-A650.
A general note: Formazan colour is commonly taken as a measure of viable cells.
In general, EC50 refers to the concentration giving half of the maximal effect. As for `COc1cccc(CCOc2ccc(Cl)c(NC(=O)c3cc(Cl)ccc3O)c2)c1` [Compound 33], the EC50 was determined as 3 µM.
Still for that read-out and setting: the result for `COc1ccc(C(=O)Nc2cccc(OCCc3ccccc3OC)c2)c(O)c1` [Compound 182] reads 23 µM.
Same read-out and setting: the result for `O=C(Nc1ccccc1C(F)(F)F)c1cc(Cl)ccc1O` [Compound 58] reads 10 µM.
On the same count and under the same terms, the result for `CN(CC(=O)OC(C)(C)C)c1ccc(NC(=O)c2cc(Cl)ccc2O)c(OCCc2cccc(C(F)(F)F)c2)c1` [Compound 373] reads 2.9 µM.
Molecule `CN(C)c1ccc(CCOc2cccc(NC(=O)c3cc(Cl)ccc3O)c2)cc1` [Compound 47] displayed a 50% effective concentration (EC50) of 4 µM.
On the same count and under the same terms, the result for `O=C(Nc1cc(Cl)ccc1OCCC1CC1)c1cc(Cl)ccc1O` [Compound 288] reads 3.3 µM; that for `CCOc1cc(CNc2cccc(NC(=O)c3cc(Cl)ccc3O)c2)ccc1OC` [Compound 20], 24 µM; that for `COc1ccccc1CCOc1cccc(NC(=O)c2cc(-c3ccccc3OC)ccc2O)c1` [Compound 343], 17 µM.
Still for that read-out and setting: the result for `O=C(c1ccccc1)c1cccc(NC(=O)c2cc(Cl)ccc2O)c1` [Compound 21] reads 9 µM; that for `O=C(Nc1cc(C(F)(F)F)ccc1OC1CCCCC1c1ccccc1)c1cc(Cl)ccc1O` (centres unmarked) [Compound 280], 1 µM; that for `COc1ccccc1CCOc1cccc(NC(=O)c2cc(F)ccc2O)c1` [Compound 183], 19 µM.
Still for that read-out and setting: the result for `O=C(Nc1cc(OCCc2ccccc2)c(Cl)cc1Cl)c1cc(Cl)ccc1O` [Compound 92] reads 2 µM; that for `CC(C)c1ccccc1-c1cccc(CNC(=O)c2cc(Cl)ccc2O)c1` [Compound 174], 11 µM; that for `CN(C)c1ccc(CCOc2ccc(Cl)cc2NC(=O)c2cc(Cl)ccc2O)cc1` [Compound 108], 3 µM.
`CC(Cc1ccccc1)Oc1cccc(NC(=O)c2cc(Cl)ccc2O)c1` (centres unmarked) [Compound 95]: the 50% effective concentration (EC50) was determined as 6 µM.
In turn, `O=C(Nc1cccc(CNc2ccccc2)c1)c1cc(Cl)ccc1O` [Compound 36] registered a concentration for a half-maximal effect (EC50) of 21 µM.
Still for that read-out and setting: the result for `COc1ccc(O)c(C(=O)Nc2cccc(OCCc3ccccc3OC)c2)c1` [Compound 186] reads 22 µM; that for `COc1ccc(CCOc2ccc(Cl)c(NC(=O)c3cc(Cl)ccc3O)c2)cc1` [Compound 37], 3 µM; that for `COc1ccccc1CCOc1cccc(NC(=O)c2cc(-c3ccsc3)ccc2O)c1` [Compound 335], 13 µM.
Same read-out and setting: the result for `Cc1cc(OCCc2ccccc2C(F)(F)F)c(NC(=O)c2cc(Cl)ccc2O)cc1Cl` [Compound 136] reads 1 µM.
Same read-out and setting: the result for `O=C(Nc1cccc(OCCc2cccc(C(F)(F)F)c2)c1)c1cc(Cl)ccc1O` [Compound 125] reads 6 µM; that for `O=C(Nc1cc(C(F)(F)F)ccc1OCCc1ccc(Cl)c(Cl)c1)c1cc(Cl)ccc1O` [Compound 249], 0.9 µM; that for `O=C(Nc1cccc(OCCc2ccccc2)c1)c1cc(-c2ccc(F)cc2F)ccc1O` [Compound 226], 7 µM.
Regarding `O=C(Nc1cc(Cl)ccc1OCCc1ccccc1)c1cnc2cc(C(F)(F)F)ccc2c1O` [Compound 166], the concentration giving a half-maximal response (EC50) worked out at 10 µM.
Still for that read-out and setting: the result for `O=C(Nc1cc(OC(F)(F)F)ccc1OCCc1cccc(C(F)(F)F)c1)c1cc(Cl)ccc1O` [Compound 262] reads 0.9 µM.
Still for that read-out and setting: the result for `O=C(Nc1cc(C(F)(F)F)cc(Cl)c1OCCc1cccc(C(F)(F)F)c1)c1cc(Cl)ccc1O` [Compound 252] reads 1 µM; that for `COC(=O)c1ccc(OCCc2ccccc2)c(NC(=O)c2cc(Cl)ccc2O)c1` [Compound 325], 3.3 µM.
As to `COc1ccccc1CCOc1cccc(NC(=O)c2cc(-c3ccc(F)cc3F)ccc2O)c1` [Compound 223], the concentration for a half-maximal effect (EC50) amounted to 8 µM.
On the same count and under the same terms, the result for `Cc1ccc(C(=O)NCc2cccc(-c3ccccc3)c2)c(O)c1` [Compound 205] reads 43 µM; that for `O=C(Nc1cc(Cl)ccc1OCCc1ccccc1)c1cc(Cl)ccc1O` [Compound 22], 2 µM.
Same read-out and setting: the result for `Cc1ccc(OCCc2ccccc2C(F)(F)F)c(NC(=O)c2cc(Cl)ccc2O)c1` [Compound 142] reads 3 µM.
In the case of `CC(C)c1ccc(CCOc2ccc(Cl)cc2NC(=O)c2cc(Cl)ccc2O)cc1` [Compound 100], the EC50 was 1 µM.
`O=C(Nc1cc(C(F)(F)F)ccc1OCCOCCCl)c1cc(Cl)ccc1O` [Compound 299] yielded a concentration giving a half-maximal response (EC50) of 1 µM.
Same read-out and setting: the result for `O=C(Nc1ccc(NCCc2cccc(C(F)(F)F)c2)c(C(F)(F)F)c1)c1cc(Cl)ccc1O` [Compound 363] reads 4 µM; that for `O=CNc1cc(Cl)cc(C(=O)Nc2cc(Cl)ccc2OCCc2ccccc2)c1O` [Compound 331], 12.4 µM.
The same measure, in the same setting: the result for `O=C(Nc1cc(C(F)(F)F)ccc1OCCOc1ccccc1)c1cc(Cl)ccc1O` [Compound 297] reads 0.9 µM; that for `O=C(Nc1cc(C(F)(F)F)cc(Cl)c1OCCc1ccc(C(F)(F)F)cc1)c1cc(Cl)ccc1O` [Compound 130], 2 µM.
Still for that read-out and setting: the result for `COc1ccccc1CCOc1cccc(NC(=O)c2cc(-n3cccc3)ccc2O)c1` [Compound 233] reads 10 µM; that for `O=C(Nc1cc(Cl)ccc1OCCc1ccc(OC(F)(F)F)cc1)c1cc(Cl)ccc1O` [Compound 161], 1 µM.
For the molecule `CC(C)(C)c1ccc(OCCc2ccccc2)c(NC(=O)c2cc(Cl)ccc2O)c1` [Compound 102], the half-maximal effective concentration (EC50) stood at 2 µM.
The same measure, in the same setting: the result for `O=C(NCc1cc(C(F)(F)F)cc(C(F)(F)F)c1)c1cc(Cl)ccc1O` [Compound 122] reads 9 µM; that for `COc1ccccc1CCOc1cccc(NC(=O)c2cc(-c3ccc4ccccc4c3)ccc2O)c1` [Compound 347], 6 µM; that for `O=C(NCc1cccc(-c2ccccc2)c1)c1cc(F)ccc1O` [Compound 190], 35 µM.
Same read-out and setting: the result for `O=C(Nc1ccc(OCCc2ccccc2)cc1C(F)(F)F)c1cc(Cl)ccc1O` [Compound 156] reads 16 µM; that for `COc1ccccc1CCOc1cccc(NC(=O)c2cc(-c3ccc(C)cc3)ccc2O)c1` [Compound 340], 16 µM; that for `O=C(Nc1cc(Cl)ccc1OCC(c1ccccc1)c1ccccc1)c1cc(Cl)ccc1O` [Compound 117], 2 µM.
On the same count and under the same terms, the result for `CC(C)c1cccc(-c2cccc(CNC(=O)c3cc(Cl)ccc3O)c2)c1` [Compound 175] reads 14 µM; that for `O=C(Nc1cccc(OCCCc2ccccc2)c1)c1cc(Cl)ccc1O` [Compound 96], 10 µM; that for `COc1ccccc1CCOc1cccc(NC(=O)c2cc(-c3cc4ccccc4s3)ccc2O)c1` [Compound 354], 7.3 µM.

Still in this assay, the particulars now being: Homo sapiens; LNCaP cells; flagged "Estimated": based on actual data at different concentrations.
On to `O=C(Nc1ccccc1C(=O)NCc1ccccc1)c1cc(Cl)ccc1O` [Compound 255], for which the EC50 is 30 µM.
Turning to `O=C(Nc1cccc(OCCc2ccccc2)c1)c1cc(Cl)ccc1O` [Compound 29], the EC50 is 30 µM.
Still for that read-out and setting: the result for `O=C(Nc1cccc(OCCc2ccccc2)c1)c1cc(Cl)cc([N+](=O)[O-])c1O` [Compound 123] reads 30 µM; that for `Cc1c(CNC(=O)c2cc(Cl)ccc2O)cccc1-c1ccccc1` [Compound 120], 18 µM.
Regarding `O=C(NCc1ccc(Cl)c(C(F)(F)F)c1)c1cc(Cl)ccc1O` [Compound 290], the EC50 is 30 µM.
Same read-out and setting: the result for `O=C(NCCc1ccccc1Oc1ccccc1)c1cc(Cl)ccc1O` [Compound 118] reads 30 µM; that for `O=C(NCc1cccc(-c2ccccc2)c1)c1ccccc1O` [Compound 199], 47 µM.

These data come from patent US7547804B2, “Compounds, compositions, and methods employing same” (Myriad Genetics, Inc., priority 2002, dated 2009).
